One data set has as its system P. aeruginosa E411-17. Put plainly: microbe, parasite or virus in culture. The format is cell-based, Pseudomonas aeruginosa. The following applies: read-out: MIC P. aeruginosa E411-17. From the text:
(§1) The bacterial strains used include the Gram-positive strains Staphylococcus aureus USA300 LAC, S. epidermidis 1457, and Bacillus subtilis 168, as well as the Gram-negative isolates Escherichia coli K12 and Acinetobacter baumannii B2367-12. Additional, drug resistance strains include Gram-positive Enterococcus faecium V286-17 (VRE) and S. aureus M838-17 (MRSA) and Gram-negative E. coli E423-17, E. coli E416-17 (ampC), and P. aeruginosa E411-17. Bacteria were cultivated in tryptic soy broth (TSB) (BD Bioscience, MD).
(§2) The antibacterial activity of peptides was evaluated using a standard broth microdilution protocol with minor modifications as described (Mishra, et al. (2012) J. Am. Chem. Soc., 134:12426-12429). In brief, logarithmic phase bacterial cultures (i.e., optical density at 600 nm≈0.5) were diluted to OD600 0.001 and partitioned into a 96-well polystyrene microplate at 90 μL per well. After treatment with 10 μL of peptide solutions two fold diluted to various concentrations, microplates were incubated at 37° C. overnight and read on a ChroMate® 4300 Microplate Reader at 630 nm (GMI, Ramsey, MN). […] To study the influence of medium conditions on the antimicrobial activity of peptides against S. aureus USA300, up to 200 mM sodium chloride (NaCl), 2 mM of calcium chloride, 5-10% of human serum, mouse plasma, fluid, or supernatants of tissue homogenates were included into the assays.
(§3) The bacterial strains used include the Gram-positive bacteria methicillin-resistant Staphylococcus aureus USA300, Enterococcus faecium V286-17 (VRE), S. aureus M838-17 (MRSA) and Gram-negative bacteria E. coli E423-17, E416-7 (ampC), P. aeruginosa E411-17, PA01, K. pneumoniae E406-17, ATCC13883, and A. baumannii B26-16. Bacteria were cultivated in tryptic soy broth (TSB) from BD Bioscience.
(§4) The antibacterial activity of peptides was evaluated using a standard broth microdilution protocol with minor modifications (Mishra, et al. (2017) Acta Biomater., 49:316-328). In brief, logarithmic phase bacterial cultures (i.e., optical density at 600 nm≈0.5) were diluted to 0.001 OD and aliquoted 90 μL per well into a 96-well polystyrene microplate. Added 10 μL peptides per well with various concentrations, plates were incubated at 37° C., overnight. Post incubation the plates are read at 630 nm using a ChroMate® Microplate Reader (GMI). […] To study the influence of medium conditions on the antimicrobial activity of peptides against S. aureus USA300 at different pHs (6.8, 7.2, and 8.0), 150 mM sodium chloride (NaCl), 5-10% of human serum, mouse plasma, and peritoneal fluid were included into the assays.

In a further data set the test system is E. faecium V286-17 (VRE). Put plainly: microbe, parasite or virus in culture. Type of data set: cell-based, Enterococcus faecium. Particulars: for MIC: read-out: MIC E. faecium V286-17 (VRE).
Text: as §1, §2, §3, §4

In a further data set the test system is K. pneumoniae E406-17. Put plainly: microbe, parasite or virus in culture. The format is cell-based, Klebsiella pneumoniae. Particulars: read-out: MIC K. pneumoniae E406-17. The protocol:
as §2, §3, §4

A further data set deals with E. coli E423-17. Briefly: microbe, parasite or virus in culture. The format is cell-based, Escherichia coli. Particulars: read-out: MIC E. coli E423-17.
Text: as §1, §2, §3, §4

In data set [1] the test system is S. aureus USA300. Briefly: microbe, parasite or virus in culture. The format is cell-based, Staphylococcus aureus. In short, it runs like this:
(§5)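 Broth microdilution: log-phase cultures in tryptic soy broth diluted to OD600 0.001, exposed to two-fold diluted peptides at 37° C overnight, growth read at 630 nm. Medium effects on S. aureus USA300 tested with up to 200 mM NaCl, 2 mM CaCl2, 5-10% human serum, mouse plasma, fluids or tissue homogenate supernatants.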

The next data set deals with S. aureus M838-17 (MRSA). Put plainly: microbe, parasite or virus in culture. Type of data set: cell-based, Staphylococcus aureus. The following applies: read-out: MIC S. aureus M838-17 (MRSA). The procedure, abridged: as §5
Another data set has as its system P. aeruginosa PAO1. Type of data set: cell-based, Pseudomonas aeruginosa. The following applies: PAO1. The procedure, abridged: (§6)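 Broth microdilution in tryptic soy broth: log-phase cultures (OD600 ≈0.5) diluted to OD600 0.001, given two-fold peptide dilutions, incubated overnight at 37° C. Growth read at 630 nm.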
In the next data set the test system is E. coli ATCC 25922. The format is cell-based, Escherichia coli. The following applies: ATCC 25922. In short, it runs like this:
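Broth microdilution: log-phase E. coli diluted to OD600 0.001 and exposed to two-fold serial peptide dilutions overnight at 37 °C. Growth read at 630 nm.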

Data set [2] deals with human red blood cells (hRBCs). Briefly: Hemolytic assay. Type of data set: cell-based. The procedure, abridged:
(§7)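 Washed hRBCs (2% v/v) exposed to peptide for 1 h at 37 °C, then centrifuged and hemoglobin in supernatant read at 545 nm. Lysis normalized to Triton X-100 (2% or 1%; 100%) and PBS (0%); HL50 is the peptide concentration giving 50% lysis, and CSI is HL50/MIC.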

A further data set in a line: Hemolytic assay. The following applies: human, human red blood cells, 2% (v/v). Type of data set: cell-based, human. In short, it runs like this:
as §7

A further data set concerns E. coli ampC E416-7. Type of data set: cell-based, Escherichia coli. The following applies: Table 7.
Text: as §1, §2

The next data set concerns A. baumannii B26-16. Put plainly: microbe, parasite or virus in culture. The format is cell-based, Acinetobacter baumannii. The following applies: read-out: MIC A. baumannii B26-16. How it is done:
as §3, §4

Data set [3] concerns S. aureus USA300. Briefly: Propidium iodide membrane permeation. Type of data set: cell-based, Staphylococcus aureus. How it is done:
The membrane permeation experiment was performed as described with minor modifications (Wang, et al. (2005) J. Biol. Chem., 280:5803-5811). Serially diluted 10× peptides (10 μL each well) were created in 96-well microtiter plates. Propidium iodide (2 μL) at a fixed concentration of 20 μM were added to each well followed by 88 μL of the S. aureus USA300 culture (a final OD600˜0.1 in TSB media). The plate was incubated at 37° C. with continuous shaking at 100 rpm in a FLUOstar® Omega (BMG LABTECH, Cary, NC) microplate reader. The fluorescence from the plate was read every 5 minutes for a total duration of 2 hours with an excitation and emission wavelengths of 584 nm and 620 nm, respectively. Plots were made using average values of duplicated experiments with MARS software.
The experiment was performed as described previously with minor modifications (Mishra, et al. (2017) Acta Biomater., 49:316-328). Serially diluted 10× peptides (10 μL each well) were created in 96-well microtiter plates. Propidium iodide (2 μL) at a fixed concentration of 20 μM were added to each well followed by 88 μL of the S. aureus USA300 culture (a final OD600˜0.1 in TSB media or PBS). The plate was incubated at 37° C. with continuous shaking at 100 rpm in a FLUOstar® Omega (BMG LABTECH) microplate reader. The samples fluorescence was read at every 5 minutes for 24 cycles with an excitation and emission wavelengths of 584 nm and 620 nm, respectively. Plots generated using average values from the experiments using GraphPad Prism.

Another data set concerns K. pneumoniae ATCC 13883. The format is cell-based, Klebsiella pneumoniae. Particulars: ATCC 13883. In short, it runs like this:
as §6

Converted amounts (≈) assume the structure as drawn. Where two headings read alike, the source gives them in different places. Peptide text beside a SMILES is read from it.

A word on the HC50: it is the concentration that lyses half of the red blood cells. A lower HC50 goes with stronger haemolysis. With `CC(C)C[C@H](NC(=O)[C@H](CC(C)C)NC(=O)[C@H](CCCCN)NC(=O)[C@H](CC(C)C)NC(=O)CNC(=O)[C@H](CC(C)C)NC(=O)[C@H](CO)NC(=O)[C@H](CC(C)C)NC(=O)[C@H](CC(C)C)NC(=O)[C@H](CC(C)C)NC(=O)[C@H](CO)NC(=O)[C@H](CC(C)C)NC(=O)CN)C(N)=O` [DFT503, GLSLLLSLGLKLL] (H-GLSLLLSLGLKLL-NH2; N-terminus and C-terminus assumed), the MIC was >50 µM in the data set on P. aeruginosa E411-17 (E411-17); >50 µM with K. pneumoniae E406-17 (E406-17); >50 µM in the data set on E. coli E423-17 (E423-17); 1.56 µM (≈ 2.09 µg/mL) with S. aureus USA300 [1] (1 mM Ca2+); 1.56 µM (≈ 2.09 µg/mL) against S. aureus USA300 [1] (2 mM Ca2+); 1.56 to 3.1 µM against S. aureus USA300 [1] (50 mM NaCl). Further, the MIC was 1.56 to 3.1 µM against S. aureus USA300 [1] (100 mM NaCl); 1.56 µM with S. aureus USA300 [1] (No salts added, Table 6, by UV); 3.1 µM (≈ 4.15 µg/mL) in the data set with S. aureus USA300 [1] (USA300); 3.1 µM (≈ 4.15 µg/mL) against S. aureus USA300 [1] (USA300, pH 6.8); 3.1 to 6.2 µM against S. aureus USA300 [1] (USA300, pH 7.4); 3.1 µM (≈ 4.15 µg/mL) against S. aureus USA300 [1] (USA300, pH 8). The MIC with S. aureus M838-17 (MRSA) (M838-17) stood at 3.1 µM (≈ 4.15 µg/mL). For the same molecule, the “MIC E. faecium V286-17 (VRE)” value in the data set on E. faecium V286-17 (VRE) (V286-17 (VRE)) is 3.1 to 6.25 µM. Moreover, the “MIC SA (S. aureus USA300)” value against S. aureus USA300 [1] (USA300) turned out to be 1.6 µM (≈ 2.14 µg/mL). Further, the “MIC PA (P. aeruginosa PAO1)” value with P. aeruginosa PAO1 is >25 µM. Moreover, in the data set on E. coli ATCC 25922, the “MIC EC (E. coli ATCC 25922)” value was >25 µM. Further, the “HL50, peptide concentration for 50% hemolysis” value in [2] is >300 µM. The HC50 at 1 h in “Hemolytic assay” was > 300 µM. Besides, the “MIC E. coli ampC E416-7” value in the data set on E. coli ampC E416-7 is >50 µM.
With `CO[C@H]1/C=C/O[C@@]2(C)Oc3c(C)c(O)c4c(O)c(cc(O)c4c3C2=O)NC(=O)/C(C)=C\C=C\[C@H](C)[C@H](O)[C@@H](C)[C@@H](O)[C@@H](C)[C@H](OC(C)=O)[C@@H]1C` [Rifamycin, reference compound], the MIC with P. aeruginosa E411-17 (Pseudomonas aeruginosa, E41117, Table 14) is > 8 µM; with E. faecium V286-17 (VRE) (Enterococcus faecium, VRE, Table 7), 12.5 µM (≈ 8.72 µg/mL); in the data set on E. faecium V286-17 (VRE) (Enterococcus faecium, VRE, Table 14) it was > 8 µM; in the data set on A. baumannii B26-16 (Acinetobacter baumannii, B2616, Table 14), > 8 µM; in the data set with K. pneumoniae E406-17 (Klebsiella pneumoniae, E40617, Table 14), > 8 µM; in the data set on E. coli E423-17 (Escherichia coli, E42317, Table 14) it was > 8 µM. In addition, the MIC with S. aureus USA300 [1] (Staphylococcus aureus, MRSA / USA300, Table 14, read-out: MIC S. aureus USA300 (MRSA)) was 0.25 µM (≈ 0.174 µg/mL); in the data set with S. aureus M838-17 (MRSA) (Staphylococcus aureus, MRSA, Table 7, by weight), 1.56 µM (≈ 1.09 µg/mL). Besides, in the data set with S. aureus USA300 [3], the “Propidium iodide membrane permeation” value is “failed to permeate”.
Consider `CC[C@H](C)[C@H](NC(=O)[C@H](CCCCN)NC(=O)[C@H](CCCNC(=N)N)NC(=O)[C@H](CC(C)C)NC(=O)[C@H](Cc1c[nH]c2ccccc12)NC(=O)[C@H](Cc1c[nH]c2ccccc12)NC(=O)[C@@H](N)Cc1c[nH]c2ccccc12)C(=O)N[C@@H](Cc1c[nH]c2ccccc12)C(N)=O` [WW291, WWWLRKIW] (H-WWWLRKIW-NH2; N-terminus and C-terminus assumed), for which the MIC in the data set with P. aeruginosa E411-17 (E411-17) is >32 µM; in the data set on E. faecium V286-17 (VRE) (V286-17 (VRE)) it was 4 µM (≈ 5.09 µg/mL); in the data set with A. baumannii B26-16 (B26-16), 16 µM (≈ 20.4 µg/mL); in the data set with K. pneumoniae E406-17 (E406-17), ≥32 µM; with E. coli E423-17 (E423-17), 8 µM (≈ 10.2 µg/mL); with S. aureus USA300 [1] (USA300, read-out: MIC S. aureus USA300 (MRSA)), 4 µM (≈ 5.09 µg/mL). The “Propidium iodide membrane permeation” value with S. aureus USA300 [3] is recorded as “permeate bacterial membranes”. Also, in the data set with K. pneumoniae ATCC 13883, the “MIC K. pneumoniae ATCC 13883” value was 12.5 µM (≈ 15.9 µg/mL). The “MIC S. aureus USA 300” value in the data set with S. aureus USA300 [1] (USA300) worked out at 3.1 µM (≈ 3.94 µg/mL). Further, the “MIC E. coli ATCC 25922” value in the data set on E. coli ATCC 25922 was in the range of 6.2 to 12.5 µM.

Source of the values: patent US12173088B2, “Anti-microbial peptides” (priority 2018, dated 2024).
